Publication PMC11881561 (Antimicrobial Agents and Chemotherapy, 2025)
≈ marks a conversion by molar mass, not a printed value. Like-named read-outs stand apart in the source and are kept apart here.

Legend:
KPC-2 WT [1] = target: T1, KPC-2 WT (Klebsiella pneumoniae, UniProt Q9F663); assay type: biochemical
Protocol: (§1) Measurements to determine kinetic parameters for hydrolysis, and kinetic parameters for inhibition were performed at ambient temperature in PBS (pH 7.4) containing 0.1 mg/mL bovine serum albumin, using a PowerWaveXS plate reader (BioTek).
(§2) Second-order rate constants (k2/K) denoting the inactivation efficiency of BLIs were determined by continuously measuring CENTA (100 µM) hydrolysis ([28]) in the presence of various concentrations of BLI. Progress curves were fit to equation 3 using GraphPad Prism, where Ai and A0 are the measured and basal absorbance, vi and vs are initial and final velocity, and t is time in seconds. k2/K was derived with equation 4. Koff was determined by the jump dilution method ([24]). Kd was estimated from the ratio between koff and k2/K.
(§3) (3) Ai=A0+vst(vi-vs)[1-e^-(kobs)t/kobs]
(§4) (4) kobs=k-2+(k2/KI)[I]/1+[S]/KM

KPC-2^V240G = KPC-2^V240G (Klebsiella pneumoniae, UniProt Q9F663, V239G); experiment: Inhibition kinetics (CENTA hydrolysis, jump dilution), KPC-2 V240G; assay type: biochemical; conditions: for Kd: estimated from ratio koff / k2/K; for koff: jump dilution
KPC-2^V240G, sequence (Q9F663 25-293 V239G): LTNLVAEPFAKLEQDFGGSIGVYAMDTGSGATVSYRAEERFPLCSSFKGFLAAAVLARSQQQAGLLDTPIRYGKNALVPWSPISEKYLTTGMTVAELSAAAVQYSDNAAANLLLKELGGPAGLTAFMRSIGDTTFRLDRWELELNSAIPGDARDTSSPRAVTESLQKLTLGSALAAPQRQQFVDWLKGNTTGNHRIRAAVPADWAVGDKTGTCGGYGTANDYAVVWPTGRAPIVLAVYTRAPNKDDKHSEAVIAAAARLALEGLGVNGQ
Protocol: as §1, §2, §3, §4

KPC-2^D179Y = KPC-2^D179Y (Klebsiella pneumoniae, UniProt Q9F663, D178Y); experiment: Inhibition kinetics (CENTA hydrolysis, jump dilution), KPC-2 D179Y; assay type: biochemical; conditions: for Kd: estimated from ratio koff / k2/K; for koff: jump dilution
KPC-2^D179Y, sequence (Q9F663 25-293 D178Y): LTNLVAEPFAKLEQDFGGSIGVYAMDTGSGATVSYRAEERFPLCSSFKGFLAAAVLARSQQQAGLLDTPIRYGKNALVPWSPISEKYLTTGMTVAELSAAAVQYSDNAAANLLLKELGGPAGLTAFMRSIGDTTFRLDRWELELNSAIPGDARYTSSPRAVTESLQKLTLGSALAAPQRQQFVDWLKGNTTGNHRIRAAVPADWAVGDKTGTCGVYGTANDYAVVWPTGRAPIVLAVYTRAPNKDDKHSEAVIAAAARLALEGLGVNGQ
Protocol: as §1, §2, §3, §4

KPC-2^D179Y/T243M = KPC-2^D179Y/T243M (Klebsiella pneumoniae, UniProt Q9F663, D178Y/T242M); experiment: Inhibition kinetics (CENTA hydrolysis, jump dilution), KPC-2 D179Y/T243M; assay type: biochemical; conditions: for Kd: estimated from ratio koff / k2/K; for koff: jump dilution
KPC-2^D179Y/T243M, sequence (Q9F663 25-293 D178Y/T242M): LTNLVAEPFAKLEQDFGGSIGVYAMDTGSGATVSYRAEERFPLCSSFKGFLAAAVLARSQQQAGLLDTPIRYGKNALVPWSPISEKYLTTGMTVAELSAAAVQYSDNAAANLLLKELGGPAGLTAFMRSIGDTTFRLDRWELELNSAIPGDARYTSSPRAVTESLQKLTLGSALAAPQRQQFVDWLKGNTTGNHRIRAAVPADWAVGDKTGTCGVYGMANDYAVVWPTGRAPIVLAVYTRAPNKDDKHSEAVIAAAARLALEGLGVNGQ
Protocol: as §1, §2, §3, §4

KPC-3 WT = KPC-3 WT (Klebsiella pneumoniae, UniProt Q9F663, H272Y); experiment: Inhibition kinetics (CENTA hydrolysis, jump dilution), KPC-3 wt; assay type: biochemical; conditions: for Kd: estimated from ratio koff / k2/K; for koff: jump dilution
KPC-3 WT, sequence (Q9F663 27-293 H272Y): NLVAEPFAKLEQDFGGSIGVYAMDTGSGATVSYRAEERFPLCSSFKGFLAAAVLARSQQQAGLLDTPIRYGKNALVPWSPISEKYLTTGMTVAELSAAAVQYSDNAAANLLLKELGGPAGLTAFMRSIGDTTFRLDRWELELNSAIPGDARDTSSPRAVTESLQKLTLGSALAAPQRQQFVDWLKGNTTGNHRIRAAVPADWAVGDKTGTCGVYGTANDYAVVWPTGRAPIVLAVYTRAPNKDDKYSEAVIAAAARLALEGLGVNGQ
Protocol: as §1, §2, §3, §4

KPC-3^V240G = KPC-3^V240G (Klebsiella pneumoniae, UniProt Q9F663, H272Y/V239G); experiment: Inhibition kinetics (CENTA hydrolysis, jump dilution), KPC-3 V240G; assay type: biochemical; conditions: for Kd: estimated from ratio koff / k2/K; for koff: jump dilution
KPC-3^V240G, sequence (Q9F663 27-293 V239G/H272Y): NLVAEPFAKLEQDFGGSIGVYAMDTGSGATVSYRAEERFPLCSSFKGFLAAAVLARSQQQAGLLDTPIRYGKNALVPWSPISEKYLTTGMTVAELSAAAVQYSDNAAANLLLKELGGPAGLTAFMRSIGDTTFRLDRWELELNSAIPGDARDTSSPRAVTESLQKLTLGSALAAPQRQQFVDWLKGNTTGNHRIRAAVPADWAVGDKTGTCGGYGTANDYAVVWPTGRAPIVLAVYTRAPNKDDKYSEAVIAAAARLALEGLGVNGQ
Protocol: as §1, §2, §3, §4

KPC-3^D179Y = KPC-3^D179Y (Klebsiella pneumoniae, UniProt Q9F663, D178Y/H272Y); experiment: Inhibition kinetics (CENTA hydrolysis, jump dilution), KPC-3 D179Y; assay type: biochemical; conditions: for Kd: estimated from ratio koff / k2/K; for koff: jump dilution
KPC-3^D179Y, sequence (Q9F663 27-293 D178Y/H272Y): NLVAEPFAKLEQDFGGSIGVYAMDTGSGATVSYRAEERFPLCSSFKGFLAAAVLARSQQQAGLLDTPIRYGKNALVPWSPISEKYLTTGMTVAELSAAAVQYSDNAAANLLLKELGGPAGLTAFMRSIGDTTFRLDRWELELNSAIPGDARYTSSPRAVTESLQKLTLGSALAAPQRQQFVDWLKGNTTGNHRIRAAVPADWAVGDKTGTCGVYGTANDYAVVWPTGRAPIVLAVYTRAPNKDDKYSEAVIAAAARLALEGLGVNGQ
Protocol: as §1, §2, §3, §4

KPC-3^D179Y/T243M = KPC-3^D179Y/T243M (Klebsiella pneumoniae, UniProt Q9F663, D178Y/H272Y/T242M); experiment: Inhibition kinetics (CENTA hydrolysis, jump dilution), KPC-3 D179Y/T243M; assay type: biochemical; conditions: for Kd: estimated from ratio koff / k2/K; for koff: jump dilution
KPC-3^D179Y/T243M, sequence (Q9F663 27-293 D178Y/T242M/H272Y): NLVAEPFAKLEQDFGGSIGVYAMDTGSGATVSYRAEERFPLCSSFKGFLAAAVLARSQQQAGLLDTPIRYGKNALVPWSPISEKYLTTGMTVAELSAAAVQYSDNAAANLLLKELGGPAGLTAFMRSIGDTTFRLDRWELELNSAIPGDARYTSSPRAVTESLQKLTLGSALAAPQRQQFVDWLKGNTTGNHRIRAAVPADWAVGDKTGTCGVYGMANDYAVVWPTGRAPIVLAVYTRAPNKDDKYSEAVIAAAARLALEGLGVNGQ
Protocol: as §1, §2, §3, §4

[2] = system: E. coli control strain lacking a β-lactamase; experiment: microbe, parasite or virus in culture; assay type: cell-based; conditions: Escherichia coli, no KPC expressed, BLIs at fixed 4 μg/mL
[3] = system: engineered E. coli strain expressing KPC-2 wt; experiment: microbe, parasite or virus in culture; assay type: cell-based; conditions: Escherichia coli; KPC-2 wt strain; BLIs at fixed 4 μg/mL
[4] = system: engineered E. coli strain expressing KPC-2^V240G; experiment: microbe, parasite or virus in culture; assay type: cell-based; conditions: Escherichia coli, BLIs at fixed 4 μg/mL
[5] = system: engineered E. coli strain expressing KPC-2^D179Y; experiment: microbe, parasite or virus in culture; assay type: cell-based; conditions: Escherichia coli, BLIs at fixed 4 μg/mL
[6] = system: engineered E. coli strain expressing KPC-2^D179Y/T243M; experiment: microbe, parasite or virus in culture; assay type: cell-based; conditions: Escherichia coli, BLIs at fixed 4 μg/mL
[7] = system: engineered E. coli strain expressing KPC-3 wt; experiment: microbe, parasite or virus in culture; assay type: cell-based; conditions: Escherichia coli; KPC-3 wt strain; BLIs at fixed 4 μg/mL
[8] = system: engineered E. coli strain expressing KPC-3^V240G; experiment: microbe, parasite or virus in culture; assay type: cell-based; conditions: Escherichia coli, BLIs at fixed 4 μg/mL
[9] = system: engineered E. coli strain expressing KPC-3^D179Y; experiment: microbe, parasite or virus in culture; assay type: cell-based; conditions: Escherichia coli, BLIs at fixed 4 μg/mL
[10] = system: engineered E. coli strain expressing KPC-3^D179Y/T243M; experiment: microbe, parasite or virus in culture; assay type: cell-based; conditions: Escherichia coli, BLIs at fixed 4 μg/mL
[11] = system: E. coli strains expressing KPC-2^D179Y or KPC-2^D179Y/T243M; experiment: microbe, parasite or virus in culture; assay type: cell-based
[12] = system: KPC-3^D179Y and KPC-3^D179Y/T243M; experiment: Inhibition kinetics, summary for KPC-3 D179Y variants; assay type: biochemical, Klebsiella pneumoniae; conditions: range over TAN, LED, AVI and both KPC-3 D179Y variants
Protocol: as §1, §2, §3, §4

KPC-2 WT [13] = target: T1, KPC-2 WT; conditions: previously reported; cited from earlier work
[14] = pH 7.4, inactivation efficiency, read-out: k2/K

T1 sequence (Q9F663 25-293 limits assumed): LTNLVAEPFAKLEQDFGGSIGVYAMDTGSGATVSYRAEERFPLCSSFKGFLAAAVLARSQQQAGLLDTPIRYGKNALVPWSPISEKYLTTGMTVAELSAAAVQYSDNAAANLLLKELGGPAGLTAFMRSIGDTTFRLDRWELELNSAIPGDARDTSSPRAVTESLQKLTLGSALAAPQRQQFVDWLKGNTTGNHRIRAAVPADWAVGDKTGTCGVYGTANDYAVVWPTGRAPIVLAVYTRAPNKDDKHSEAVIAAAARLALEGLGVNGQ

## NC(=O)[C@@H]1CC[C@@H]2CN1C(=O)N2OS(=O)(=O)O [AVI, avibactam]
KPC-2 WT [1]
  t1/2: 21.4 ± 0.07 min
KPC-2^V240G
  t1/2: 21.5 ± 0.06 min
KPC-2^D179Y; KPC-2 D179Y
  t1/2: 205 ± 10 min
KPC-2^D179Y/T243M; KPC-2 D179Y/T243M
  t1/2: 198 ± 8 min
KPC-3 WT
  t1/2: 10.1 ± 0.1 min
KPC-3^V240G
  t1/2: 10.7 ± 0.1 min
KPC-3^D179Y
  t1/2: 12.8 ± 0.9 min
KPC-3^D179Y/T243M
  t1/2: 22.5 ± 3.5 min

## CC(C)(O/N=C(\C(=O)N[C@@H]1C(=O)N2C(C(=O)[O-])=C(C[n+]3ccccc3)CS[C@H]12)c1csc(N)n1)C(=O)O [CAZ, ceftazidime]
[2]
  MIC: 0.5 µg/mL (≈ 0.915 µM)
[3]
  MIC: 64 µg/mL (≈ 117 µM)
[4]
  MIC: > 256 µg/mL
[5]
  MIC: > 256 µg/mL
[6]
  MIC: > 256 µg/mL
[7]
  MIC: 256 µg/mL (≈ 468 µM)
[8]
  MIC: > 256 µg/mL
[9]
  MIC: > 256 µg/mL
[10]
  MIC: > 256 µg/mL
[11]; Escherichia coli
  MIC: > 256 µg/mL

## CCC(=O)N[C@H]1Cc2cccc(C(=O)O)c2OB1O [LED, ledaborbactam]
KPC-2^V240G
  t1/2: 32 ± 1 min
  Kd: 0.012 µM
KPC-2^V240G; read-out: koff
  koff: 0.00037 s⁻¹
KPC-2^V240G; [14]
  kinact/KI: 31000 M⁻¹ s⁻¹
KPC-2^D179Y; KPC-2 D179Y
  t1/2: 16.7 ± 0.5 min
  Kd: 1.3 µM
KPC-2^D179Y; KPC-2 D179Y, read-out: koff
  koff: 0.00069 s⁻¹
KPC-2^D179Y; pH 7.4, inactivation efficiency, KPC-2 D179Y, read-out: k2/K
  kinact/KI: 520 M⁻¹ s⁻¹
KPC-2^D179Y/T243M; KPC-2 D179Y/T243M
  t1/2: 18.6 ± 2.7 min
  Kd: 1.5 µM
KPC-2^D179Y/T243M; KPC-2 D179Y/T243M, read-out: koff
  koff: 0.00063 s⁻¹
KPC-2^D179Y/T243M; pH 7.4, inactivation efficiency, KPC-2 D179Y/T243M, read-out: k2/K
  kinact/KI: 430 M⁻¹ s⁻¹
KPC-3 WT
  t1/2: 19.6 ± 0.2 min
  Kd: 0.22 µM
KPC-3 WT; read-out: koff
  koff: 0.00059 s⁻¹
KPC-3 WT; [14]
  kinact/KI: 2700 M⁻¹ s⁻¹
KPC-3^V240G
  t1/2: 19.3 ± 0.4 min
  Kd: 0.046 µM
KPC-3^V240G; read-out: koff
  koff: 0.0006 s⁻¹
KPC-3^V240G; [14]
  kinact/KI: 13000 M⁻¹ s⁻¹
KPC-3^D179Y
  t1/2: 17.2 ± 0.3 min
  Kd: 1.25 µM
KPC-3^D179Y; read-out: koff
  koff: 0.00067 s⁻¹
KPC-3^D179Y; [14]
  kinact/KI: 540 M⁻¹ s⁻¹
KPC-3^D179Y/T243M
  t1/2: 18.1 ± 2.2 min
  Kd: 0.62 µM
KPC-3^D179Y/T243M; read-out: koff
  koff: 0.00065 s⁻¹
KPC-3^D179Y/T243M; [14]
  kinact/KI: 1000 M⁻¹ s⁻¹
[12]
  reduced inactivation efficiencies relative to KPC-3^wt: 2–14 fold
KPC-2 WT [13]
  Kd: 0.009 µM
  k2/K: (2.9 ± 0.07) × 10^4 M^−1⋅s^−1
  koff: (2.5 ± 0.1) × 10^−4 s^−1

## C[C@@H](O)[C@H]1C(=O)N2C(C(=O)O)=C(S[C@@H]3CN[C@H](C(=O)N(C)C)C3)[C@H](C)[C@H]12 [MEM, meropenem]
[2]
  MIC: 0.03 µg/mL (≈ 0.0782 µM)
[3]
  MIC: 32 µg/mL (≈ 83.4 µM)
[4]
  MIC: 8 µg/mL (≈ 20.9 µM)
[5]
  MIC: 0.25 µg/mL (≈ 0.652 µM)
[6]
  MIC: 0.25 µg/mL (≈ 0.652 µM)
[7]
  MIC: 16 µg/mL (≈ 41.7 µM)
[8]
  MIC: 16 µg/mL (≈ 41.7 µM)
[9]
  MIC: 0.12 µg/mL (≈ 0.313 µM)
[10]
  MIC: 0.12 µg/mL (≈ 0.313 µM)
[11]
  MIC increase relative to the control strain: eightfold

## NCCN[C@H]1CC[C@H](CC(=O)N[C@H]2Cc3cccc(C(=O)O)c3OB2O)CC1 [TAN, taniborbactam]
KPC-2 WT [1]
  t1/2: 104 ± 2.3 min
KPC-2 WT [1]; estimated from ratio koff / k2/K
  Kd: 0.011 µM
KPC-2 WT [1]; inactivation efficiency, CENTA 100 µM
  k2/K: (0.9 ± 0.02) × 10^4 M^−1⋅s^−1
KPC-2 WT [1]; jump dilution
  koff: (1.0 ± 0.04) × 10^−4 s^−1
KPC-2^V240G
  t1/2: 106 ± 2.3 min
  Kd: 0.055 µM
  koff: (1.1 ± 0.03) × 10^−4 s^−1
KPC-2^V240G; inactivation efficiency
  k2/K: (0.2 ± 0.02) × 10^4 M^−1⋅s^−1
KPC-2^D179Y; KPC-2 D179Y
  t1/2: 231 ± 19.4 min
  Kd: 2.9 µM
  koff: (5.0 ± 0.4) × 10^−5 s^−1
KPC-2^D179Y; KPC-2^D179Y relative to KPC-2 wt
  reduction in k2/K: roughly 500 fold
KPC-2^D179Y; inactivation efficiency, KPC-2 D179Y
  k2/K: 17 ± 0.7 M^−1⋅s^−1
KPC-2^D179Y/T243M; KPC-2 D179Y/T243M
  t1/2: 222.3 ± 13.7 min
  Kd: 3.4 µM
  koff: (5.2 ± 0.3) × 10^−5 s^−1
KPC-2^D179Y/T243M; KPC-2^D179Y/T243M relative to KPC-2 wt
  reduction in k2/K: ~600 fold
KPC-2^D179Y/T243M; inactivation efficiency, KPC-2 D179Y/T243M
  k2/K: 15.2 ± 0.1 M^−1⋅s^−1
KPC-3 WT
  t1/2: 34 ± 4 min
  Kd: 0.009 µM
  koff: (3.5 ± 0.4) × 10^−4 s^−1
KPC-3 WT; inactivation efficiency
  k2/K: (3.9 ± 0.4) × 10^4 M^−1⋅s^−1
KPC-3^V240G
  t1/2: 14.4 ± 0.7 min
  Kd: 0.018 µM
  koff: (8.0 ± 0.4) × 10^−4 s^−1
KPC-3^V240G; inactivation efficiency
  k2/K: (4.4 ± 0.9) × 10^4 M^−1⋅s^−1
KPC-3^D179Y
  t1/2: 14.3 ± 1.2 min
  Kd: 0.29 µM
  koff: (8.1 ± 0.7) × 10^−4 s^−1
KPC-3^D179Y; inactivation efficiency
  k2/K: (2.8 ± 0.2) × 10^3 M^−1⋅s^−1
KPC-3^D179Y/T243M
  t1/2: 14.6 ± 5 min
  Kd: 0.193 µM
  koff: (8.5 ± 2.5) × 10^−4 s^−1
KPC-3^D179Y/T243M; inactivation efficiency
  k2/K: (4.4 ± 0.7) × 10^3 M^−1⋅s^−1
[12]
  reduced inactivation efficiencies relative to KPC-3^wt: 2–14 fold
